Results as given in patent publication US20230126447A1, “OCULAR DRUG DEPOT FOR COMPLEMENT-MEDIATED DISORDERS” (priority 2020, published 2023).
Like-named read-outs stand apart in the source and are kept apart here.

Test: Ocular tissue distribution and pharmacokinetics, 7.5 and 15 mg/kg oral, pigmented Dutch Belted rabbits (Example 7)
Format: in vivo
Conditions: for Mean retina concentration / Mean plasma concentration / concentration at 0 h / concentration at 1 h / concentration at 6 h / concentration at 24 h / concentration at 96 h / concentration at 168 h / concentration at 12 h / concentration at 240 h: DB rabbits; for Tmax / concentration at 0 h / concentration at 1 h / concentration at 6 h / concentration at 24 h / concentration at 96 h / concentration at 168 h / concentration at 12 h / concentration at 240 h / MRT last: Dutch Belted, rabbit; for concentration at 0 h / concentration at 1 h / concentration at 6 h / concentration at 24 h / concentration at 96 h / concentration at 168 h / concentration at 12 h / concentration at 240 h: oral
Procedure: For Group 1, two animals/time point were sacrificed via an overdose of sodium pentobarbital at approximately 1, 6, 12, 24, 96, 168, and 240 hours postdose. Blood (approximately 2 mL) was collected from all animals at sacrifice into tubes containing K2EDTA via exsanguination (cardiac puncture).
For Groups 2 through 4, blood (approximately 2 mL) was collected via a jugular vein using a syringe and needle and was transferred into tubes containing K2EDTA at approximately 12 hours after the a.m. dose on Day 15 from the two animals designated for sacrifice at approximately 240 hours after the a.m. dose on Day 15.
For Groups 2 through 4, two animals/group/time point were sacrificed via an overdose of sodium pentobarbital prior to dosing on Day 15 and at approximately 1, 6, 24, 96, 168, and 240 hours after the a.m. dose on Day 15. Blood (approximately 2 mL) was collected from all animals at sacrifice into tubes containing K2EDTA via exsanguination (cardiac puncture).
Blood was maintained on wet ice, in chilled cryoracks, or at approximately 5° C. prior to centrifugation to obtain plasma. Centrifugation began within 1 hour of collection (Deviation). Plasma was placed into 96-well tubes with barcode labels. Plasma was maintained on dry ice prior to storage at approximately −70° C.
At the time of sacrifice, both eyes were enucleated, and the following tissues were collected. Each eye was flash-frozen in liquid nitrogen for 15 to 20 seconds. The enucleated eye was placed on dry ice or stored at approximately −70° C. for at least 2 hours. Within approximately 3 days, the frozen matrices were collected as right and left eyes for each matrix into the specific tube type listed.
At the time of frozen collection, the ocular tissues were rinsed with saline and blotted dry (as appropriate), weighed, and placed on dry ice. All ocular tissues were collected as single samples.

[1] = Choroid-RPE (OU), male DB rabbits, Group 1, Day 1, […] single oral dose
[2] = Choroid-RPE (OU), male DB rabbits, Group 2, Day 15, […] BID oral (15 mg/kg/day)
[3] = Choroid-RPE (OU), male DB rabbits, Group 3, Day 15, 15 mg/kg/dose BID oral (30 mg/kg/day)
[4] = choroid-RPE, 15 mg/kg, Day 15, 15 mg/kg BID, read-out: Mean Choroid-RPE Concentration
[5] = choroid-RPE, […], Day 1, […] single dose, read-out: Mean Choroid-RPE Concentration
[6] = choroid-RPE, […], Day 15, […] BID, read-out: Mean Choroid-RPE Concentration
[7] = iris-ciliary body (ICB), ICB (OU), male DB rabbits, Group 1, Day 1, 7.5 mg/kg single oral dose
[8] = iris-ciliary body, 15 mg/kg, Day 15, 15 mg/kg BID, read-out: Mean Iris-Ciliary Concentration
[9] = iris-ciliary body, […], Day 1, […] single dose, read-out: Mean Iris-Ciliary Concentration
[10] = iris-ciliary body, […], Day 15, […] BID, read-out: Mean Iris-Ciliary Concentration
[11] = plasma, 15 mg/kg, Day 15, 15 mg/kg BID, read-out: Mean Plasma Concentration
[12] = plasma, […], Day 1, […] single dose, read-out: Mean Plasma Concentration
[13] = plasma, […], Day 15, […] BID, read-out: Mean Plasma Concentration
[14] = retina, 15 mg/kg, Day 15, 15 mg/kg BID, read-out: Mean Retina Concentration
[15] = retina, […], Day 15, […] BID, read-out: Mean Retina Concentration

With `CC(=O)c1nn(CC(=O)N2C[C@H](F)C[C@H]2C(=O)Nc2cccc(Br)n2)c2ccc(-c3cnc(C)nc3)cc12` [Compound 1, (2S,4R)-1-(2-(3-Acetyl-5-(2-methylpyrimidin-5-yl)-1H-indazol-1-yl)acetyl)-N-(6-bromopyridin-2-yl)-4-fluoropyrrolidine-2-carboxamide] the “Ocular tissue exposure in melanin-containing tissues (ICB and choroid-RPE), DB compared to NZW rabbits” value (30 mg/kg/day (15 mg/kg/dose, BID)) was “greater than 10 fold”, the AUC0-12 [1] was 5550 ng·h/g and the AUC0-240 [1] was 14000 ng·h/g. It also gave an AUC(0-24) [1] of 7580 ng·h/g, an AUC(0-inf) [1] of 14500 ng·h/g and an AUC(0-t) [1] of 14000 ng·h/g. For the same compound, the Ctrough [1] was 260 ng/g, the “DN AUC0-12” value [1] was 740 (h*ng/g)/(mg/kg/dose) and the “DN AUC0-24” value [1] was 1010 (h*ng/g)/(mg/kg/day). The “DN Cmax” value [1] was 96.8 (ng/g)/(mg/kg/day, the AUC0-12 [2] was 18500 ng·h/g and the AUC0-240 [2] was 89100 ng·h/g. It also gave an AUC(0-24) [2] of 30100 ng·h/g, an AUC(0-t) [2] of 89100 ng·h/g and a Ctrough [2] of 1250 ng/g. For the same compound, the “DN AUC0-12” value [2] was 2470 (h*ng/g)/(mg/kg/dose), the “DN AUC0-24” value [2] was 4020 (h*ng/g)/(mg/kg/day) and the “DN Cmax” value [2] was 267 (ng/g)/(mg/kg/day. For the same compound, the AUC0-12 [3] was 28200 ng·h/g, the AUC0-240 [3] was 151000 ng·h/g and the AUC(0-24) [3] was 47500 ng·h/g. The AUC(0-t) [3] was 151000 ng·h/g, the Ctrough [3] was 1740 ng/g and the “DN AUC0-12” value [3] was 1880 (h*ng/g)/(mg/kg/dose). For the same compound, the “DN AUC0-24” value [3] was 3170 (h*ng/g)/(mg/kg/day), the “DN Cmax” value [3] was 265 (ng/g)/(mg/kg/day and the “Mean retina concentration” value (Day 1, […] single dose, 24 hr) was “BLQ”. For the same compound, the “Mean plasma concentration” value (Day 1, […] single dose, 96 hr) was “BLQ”, the “Mean retina concentration” value (Day 1, […] single dose, 96 hr) was “BLQ” and the “Mean plasma concentration” value (Day 1, […] single dose, 168 hr) was “BLQ”. The “Mean retina concentration” value (Day 1, […] single dose, 168 hr) was “BLQ”, the “Mean plasma concentration” value (Day 1, […] single dose, 240 hr) was “BLQ” and the “Mean retina concentration” value (Day 1, […] single dose, 240 hr) was “BLQ”. The “Mean plasma concentration” value (Day 15, 15 mg/kg BID, 96 hr) was “BLQ”, the “Mean plasma concentration” value (Day 15, 15 mg/kg BID, 168 hr) was “BLQ” and the “Mean plasma concentration” value (Day 15, 15 mg/kg BID, 240 hr) was “BLQ”. The “Mean plasma concentration” value (Day 15, […] BID, 96 hr) was “BLQ”, the “Mean plasma concentration” value (Day 15, […] BID, 168 hr) was “BLQ” and the “Mean plasma concentration” value (Day 15, […] BID, 240 hr) was “BLQ”. It also gave a Tmax (choroid-RPE (choroid-retinal pigment epithelium), Choroid-RPE (OU), male DB rabbits, Group 1, Day 1, 7.5 mg/kg single oral dose) of 1 h, a concentration at 0 h [4] of 1540 ng/g and a concentration at 1 h [4] of 3970 ng/g. The concentration at 6 h [4] was 1880 ng/g, the concentration at 24 h (choroid-RPE, 15 mg/kg, Day 15, 15 mg/kg BID, 24 hr, read-out: Mean Choroid-RPE Concentration) was 1470 ng/g and the concentration at 96 h (choroid-RPE, 15 mg/kg, Day 15, 15 mg/kg BID, 96 hr, read-out: Mean Choroid-RPE Concentration) was 441 ng/g. For the same compound, the concentration at 168 h (choroid-RPE, 15 mg/kg, Day 15, 15 mg/kg BID, 168 hr, read-out: Mean Choroid-RPE Concentration) was 195 ng/g, the concentration at 1 h [5] was 726 ng/g and the concentration at 6 h [5] was 472 ng/g. It also gave a concentration at 12 h [5] of 260 ng/g, a concentration at 24 h (choroid-RPE, […], Day 1, […] single dose, 24 hr, read-out: Mean Choroid-RPE Concentration) of 78 ng/g and a concentration at 96 h (choroid-RPE, […], Day 1, […] single dose, 96 hr, read-out: Mean Choroid-RPE Concentration) of 28.4 ng/g. The concentration at 168 h (choroid-RPE, […], Day 1, […] single dose, 168 hr, read-out: Mean Choroid-RPE Concentration) was 19.4 ng/g, the concentration at 0 h [6] was 695 ng/g and the concentration at 1 h [6] was 2000 ng/g. For the same compound, the concentration at 6 h [6] was 1530 ng/g, the concentration at 24 h (choroid-RPE, […], Day 15, […] BID, 24 hr, read-out: Mean Choroid-RPE Concentration) was 685 ng/g and the concentration at 96 h (choroid-RPE, […], Day 15, […] BID, 96 hr, read-out: Mean Choroid-RPE Concentration) was 238 ng/g. For the same compound, the concentration at 168 h (choroid-RPE, […], Day 15, […] BID, 168 hr, read-out: Mean Choroid-RPE Concentration) was 183 ng/g, the concentration at 240 h (choroid-retinal pigment epithelium (choroid-RPE), 15 mg/kg, Day 15, 15 mg/kg BID, 240 hr, read-out: Mean Choroid-RPE Concentration) was 119 ng/g and the concentration at 240 h (choroid-retinal pigment epithelium (choroid-RPE), […], Day 1, […] single dose, 240 hr, read-out: Mean Choroid-RPE Concentration) was 5.23 ng/g. The concentration at 240 h (choroid-retinal pigment epithelium (choroid-RPE), […], Day 15, […] BID, 240 hr, read-out: Mean Choroid-RPE Concentration) was 111 ng/g, the MRT last (choroid-retinal pigment epithelium (choroid-RPE), Choroid-RPE (OU), male DB rabbits, Group 1, Day 1, 7.5 mg/kg single oral dose) was 42.8 h and the Tmax (choroid-retinal pigment epithelium (choroid-RPE), Choroid-RPE (OU), male DB rabbits, Group 2, Day 15, 7.5 mg/kg/dose BID oral (15 mg/kg/day)) was 1 h. It also gave a Tmax (choroid-retinal pigment epithelium (choroid-RPE), Choroid-RPE (OU), male DB rabbits, Group 3, Day 15, 15 mg/kg/dose BID oral (30 mg/kg/day)) of 1 h, an MRT last [7] of 5.59 h and a Tmax [7] of 1 h. The Tmax (iris-ciliary body (ICB), ICB (OU), male DB rabbits, Group 3, Day 15, 15 mg/kg/dose BID oral (30 mg/kg/day)) was 1 h, the concentration at 1 h [8] was 2050 ng/g and the concentration at 6 h [8] was 939 ng/g. It also gave a concentration at 24 h (iris-ciliary body, 15 mg/kg, Day 15, 15 mg/kg BID, 24 hr, read-out: Mean Iris-Ciliary Concentration) of 460 ng/g, a concentration at 1 h [9] of 435 ng/g and a concentration at 6 h [9] of 163 ng/g. The concentration at 24 h (iris-ciliary body, […], Day 1, […] single dose, 24 hr, read-out: Mean Iris-Ciliary Concentration) was 31.4 ng/g, the concentration at 1 h [10] was 943 ng/g and the concentration at 6 h [10] was 634 ng/g. It also gave a concentration at 24 h (iris-ciliary body, […], Day 15, […] BID, 24 hr, read-out: Mean Iris-Ciliary Concentration) of 184 ng/g, a concentration at 0 h [11] of 36.4 ng/mL and a concentration at 1 h [11] of 910 ng/mL. For the same compound, the concentration at 6 h [11] was 130 ng/mL, the concentration at 12 h [11] was 54.3 ng/mL and the concentration at 24 h (plasma, 15 mg/kg, Day 15, 15 mg/kg BID, 24 hr, read-out: Mean Plasma Concentration) was 10.5 ng/mL. The concentration at 1 h [12] was 423 ng/mL, the concentration at 6 h [12] was 25.1 ng/mL and the concentration at 12 h [12] was 14.8 ng/mL. The concentration at 24 h (plasma, […], Day 1, […] single dose, 24 hr, read-out: Mean Plasma Concentration) was 3.26 ng/mL, the concentration at 0 h [13] was 22.2 ng/mL and the concentration at 1 h [13] was 440 ng/mL. For the same compound, the concentration at 6 h [13] was 90.1 ng/mL, the concentration at 12 h [13] was 29.6 ng/mL and the concentration at 24 h (plasma, […], Day 15, […] BID, 24 hr, read-out: Mean Plasma Concentration) was 6.64 ng/mL. For the same compound, the concentration at 6 h (retina, 15 mg/kg BID, Day 15, 15 mg/kg BID, read-out: Mean Retina Concentration) was 115 ng/g, the concentration at 24 h (retina, 15 mg/kg BID, Day 15, 15 mg/kg BID, 24 hr, read-out: Mean Retina Concentration) was 139 ng/g and the concentration at 96 h (retina, 15 mg/kg BID, Day 15, 15 mg/kg BID, 96 hr, read-out: Mean Retina Concentration) was 31.4 ng/g. It also gave a concentration at 168 h (retina, 15 mg/kg BID, Day 15, 15 mg/kg BID, 168 hr, read-out: Mean Retina Concentration) of 22.5 ng/g, a concentration at 240 h (retina, 15 mg/kg BID, Day 15, 15 mg/kg BID, 240 hr, read-out: Mean Retina Concentration) of 19.7 ng/g and a concentration at 0 h [14] of 45 ng/g. The concentration at 1 h [14] was 1120 ng/g, the concentration at 1 h (retina, […], Day 1, […] single dose, read-out: Mean Retina Concentration) was 188 ng/g and the concentration at 0 h [15] was 20.7 ng/g. It also gave a concentration at 1 h [15] of 306 ng/g.
